The source of these data is patent US9969742B2, “Imidazotriazinone compounds” (Ironwood Pharmaceuticals, Inc., priority 2012, dated 2018).

By IC50 is commonly meant the point on the concentration scale where inhibition reaches its midpoint.

The target of this assay is T1, PDE9A2 (Homo sapiens, UniProt O76083).
T1 construct: purchased Reaction Biology Corporation, Malvern, Pa
As to the kind of experiment: Phosphodiesterase enzyme screening assay, PDE9A2. It is filed as biochemical. The conditions noted are these: read-out: Band (PDE9A2 IC50). From the text: Compounds of the invention were screened against PDE1A, PDE1B, PDE2A, PDE3A, PDE3B, PDE4A1A, PDE4B1, PDE4D3, PDE5A1, PDE6C, PDE7A, PDE8A1, PDE9A2, PDE10A2 AND PDE11A isoforms of the phosphodiesterase enzyme to determine activity and overall selectivity through comparative analysis. […] Where 8-methoxy-IBMX and Zaprinast were used as reference inhibitors.
The phosphodiesterase enzyme isoforms were obtained from a commercial retailer (Reaction Biology Corporation, Malvern, Pa.) for use in the instant screening assay.
The analysis was completed using the Caliper LabChip 3000 and a 12-sipper LabChip. LabChip assays are separations-based, meaning that the product and substrate are electrophoretically separated, thereby minimizing interferences and yielding the highest data quality available on any screening platform. […] High Z′ values, few false positives, few false negatives and analytical quality reproducibility are the reasons cited for the increasing reliance on the LabChip assays.
The off-chip incubation mobility-shift phosphodiesterase assay uses a microfluidic chip to measure the conversion of a fluorescent cyclic AMP substrate to a 5′-AMP product, or a cyclic GMP substrate to a 5′-GMP product. The reaction mixture, from a microtiter plate well, is introduced through a capillary sipper onto the chip, where the fluorescent substrate and product are separated by electrophoresis and detected via laser-induced fluorescence. […] The precision of microfluidics allows researchers to detect subtle interactions between drug candidates and therapeutic targets.
Reactions were carried out in 100 mM HEPES (pH 7.5), 5 mM MgCl2, 1 mM DTT, 0.003% Brij, 4.0 μM cGMP substrate. The reaction was started by addition of cGMP or cAMP and incubated for 1 hour at R.T. The reaction was terminated by the addition of stop buffer containing 100 mM HEPES (pH 7.5), 15 mM EDTA, 0.015% Brij-35, 5% DMSO. Cyclic AMP/GMP substrate and 5′-AMP/5′-GMP product were separated by charge using electrophoretic mobility shift. Product formed was compared to control wells to determine inhibition or enhancement of enzyme activity.
Data points were averages of quadruplicate wells and error bars represented the SEM for each point.

The mark [1] stands for this setting: Table 1, 10 concentrations, 4.0 μM cGMP substrate, 1 hour at R.T.
Where [2] appears, read: Table 2, 10 concentrations, 4.0 μM cGMP substrate, 1 hour at R.T.

Where two headings read alike, the source gives them in different places.

T1 sequence (O76083 1-533 isoform O76083-2): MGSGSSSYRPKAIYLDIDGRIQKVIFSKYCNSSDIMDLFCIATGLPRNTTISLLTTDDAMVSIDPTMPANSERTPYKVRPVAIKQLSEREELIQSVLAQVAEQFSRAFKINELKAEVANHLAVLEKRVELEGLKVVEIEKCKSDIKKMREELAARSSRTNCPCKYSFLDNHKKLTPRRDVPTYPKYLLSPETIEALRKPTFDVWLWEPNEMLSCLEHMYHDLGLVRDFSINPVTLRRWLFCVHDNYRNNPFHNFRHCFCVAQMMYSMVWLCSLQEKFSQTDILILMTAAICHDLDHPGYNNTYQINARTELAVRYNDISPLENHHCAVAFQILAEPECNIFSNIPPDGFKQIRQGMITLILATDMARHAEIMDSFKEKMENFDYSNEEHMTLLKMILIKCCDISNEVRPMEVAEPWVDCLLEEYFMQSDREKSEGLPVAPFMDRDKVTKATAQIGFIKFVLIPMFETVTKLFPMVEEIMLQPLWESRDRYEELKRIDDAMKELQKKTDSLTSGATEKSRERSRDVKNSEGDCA

Regarding `CCS(=O)(=O)N1CC(C)C(c2nn3c(C4CCOCC4)ncc3c(=O)[nH]2)C1` (single isomer, unassigned; (+)) [(+)-2-((3,4-trans)-1-(ethylsulfonyl)-4-methylpyrrolidin-3-yl)-7-(tetrahydro-2H-pyran-4-yl)imidazo[5,1-f][1,2,4]triazin-4(3H)-one], under setting [1], the half-maximal inhibitory concentration (IC50) was 1 to 10 µM.

In the case of `CC1CN(Cc2cn3ccccc3n2)CC1c1nn2c(-c3ccccc3)ncc2c(=O)[nH]1` (single isomer, unassigned; (+)) [(+)-2-((3,4-trans)-1-(imidazo[1,2-a]pyridin-2-ylmethyl)-4-methylpyrrolidin-3-yl)-7-phenylimidazo[5,1-f][1,2,4]triazin-4(3H)-one], the IC50 is less than 1 µM.

Take `CC1CN(C(=O)c2ccccc2)CC1c1nn2c(C3CCOCC3)ncc2c(=O)[nH]1` (single isomer, unassigned; (+)) [(+)-2-((3,4-trans)-1-benzoyl-4-methylpyrrolidin-3-yl)-7-(tetrahydro-2H-pyran-4-yl)imidazo[5,1-f][1,2,4]triazin-4(3H)-one]: under setting [1], the IC50 lay in the range of 1 to 10 µM.

As to `CC1CN(Cc2ccccc2)CC1c1nn2c(CC(F)(F)F)ncc2c(=O)[nH]1` (single isomer, unassigned; (+)) [(+)-2-((3,4-trans)-1-benzyl-4-methylpyrrolidin-3-yl)-7-(2,2,2-trifluoroethyl) imidazo [5,1-f] [1,2,4] triazin-4 (3H)-one], where the note is “4.0 μM cGMP substrate, 1 hour at R.T.”, the IC50 was less than 1 µM.

Regarding `Cc1ccc(F)cc1-c1ncc2c(=O)[nH]c(C3CN(Cc4ccccc4)CC3C)nn12` (single isomer, unassigned; (+)) [(+)-2-((3,4-trans)-1-benzyl-4-methylpyrrolidin-3-yl)-7-(5-fluoro-2-methylphenyl)imidazo[1,5-f][1,2,4]triazin-4(3H)-one], under setting [1], the IC50 was less than 1 µM.

Take `CC1CN(Cc2ccccc2)CC1c1nn2c(C3CCOCC3)ncc2c(=O)[nH]1` (single isomer, unassigned; (+)) [(+)-2-((3,4-trans)-1-benzyl-4-methylpyrrolidin-3-yl)-7-(tetrahydro-2H-pyran-4-yl)imidazo[1,5-f][1,2,4]triazin-4(3H)-one]: the concentration for half-maximal inhibition (IC50) under setting [1] was less than 1 µM.

`CC1CN(Cc2ccccc2)CC1c1nn2c(C3CCCC3)ncc2c(=O)[nH]1` (single isomer, unassigned; (+)) [(+)-2-((3,4-trans)-1-benzyl-4-methylpyrrolidin-3-yl)-7-cyclopentylimidazo[5,1-f][1,2,4]triazin-4(3H)-one]: the IC50 is less than 1 µM.

For `CC1CN(C(=O)c2ccccc2C#N)CC1c1nn2c(C3CCOCC3)ncc2c(=O)[nH]1` (single isomer, unassigned; (+)) [(+)-2-((3,4-trans)-3-methyl-4-(4-oxo-7-(tetrahydro-2H-pyran-4-yl)-3,4-dihydroimidazo[5,1-f][1,2,4]triazin-2-yl)pyrrolidine-1-carbonyl)benzonitrile], the concentration for half-maximal inhibition (IC50) under setting [1] fell in the range of 1 to 10 µM.

`CC1CN(CC(F)(F)F)CC1c1nn2c(C3CCOCC3)ncc2c(=O)[nH]1` (single isomer, unassigned; (+)) [(+)-2-((3,4-trans)-4-methyl-1-(2,2,2-trifluoroethyl)pyrrolidin-3-yl)-7-(tetrahydro-2H-pyran-4-yl)imidazo[5,1-f][1,2,4]triazin-4(3H)-one]: the IC50 under setting [2] was less than 1 µM.

Regarding `CC1CN(C(=O)Cc2cncnc2)CC1c1nn2c(C3CCOCC3)ncc2c(=O)[nH]1` (single isomer, unassigned; (+)) [(+)-2-((3,4-trans)-4-methyl-1-(2-(pyrimidin-5-yl)acetyl)pyrrolidin-3-yl)-7-(tetrahydro-2H-pyran-4-yl)imidazo[5,1-f][1,2,4]triazin-4(3H)-one], under setting [2], the IC50 is 1 to 10 µM.

On to `CC1CN(CC2CCN(C)CC2)CC1c1nn2c(C3CCOCC3)ncc2c(=O)[nH]1` (single isomer, unassigned; (+)) [(+)-2-((3,4-trans)-4-methyl-1-((1-methylpiperidin-4-yl)methyl)pyrrolidin-3-yl)-7-(tetrahydro-2H-pyran-4-yl)imidazo[5,1-f][1,2,4]triazin-4(3H)-one], for which the IC50 lay in the range of 1 to 10 µM.

Consider `CSc1cnc(CN2CC(C)C(c3nn4c(C5CCOCC5)ncc4c(=O)[nH]3)C2)nc1` (single isomer, unassigned; (+)) [(+)-2-((3,4-trans)-4-methyl-1-((5-(methylthio)pyrimidin-2-yl)methyl)pyrrolidin-3-yl)-7-(tetrahydro-2H-pyran-4-yl)imidazo[5,1-f][1,2,4]triazin-4(3H)-one], for which the IC50 under setting [2] is less than 1 µM.

Consider `CC1CN(Cc2ncc(C(F)(F)F)cn2)CC1c1nn2c(C3CCOCC3)ncc2c(=O)[nH]1` (single isomer, unassigned; (+)) [(+)-2-((3,4-trans)-4-methyl-1-((5-(trifluoromethyl)pyrimidin-2-yl)methyl)pyrrolidin-3-yl)-7-(tetrahydro-2H-pyran-4-yl)imidazo[5,1-f][1,2,4]triazin-4(3H)-one], for which the IC50 under setting [2] was less than 1 µM.

As to `CC1CN(S(=O)(=O)c2ccccc2)CC1c1nn2c(C3CCOCC3)ncc2c(=O)[nH]1` (single isomer, unassigned; (+)) [(+)-2-((3,4-trans)-4-methyl-1-(phenylsulfonyl)pyrrolidin-3-yl)-7-(tetrahydro-2H-pyran-4-yl)imidazo[5,1-f][1,2,4]triazin-4(3H)-one], the IC50 under setting [1] was less than 1 µM.

Regarding `CC1CN(S(=O)(=O)c2cccnc2)CC1c1nn2c(C3CCOCC3)ncc2c(=O)[nH]1` (single isomer, unassigned; (+)) [(+)-2-((3,4-trans)-4-methyl-1-(pyridin-3-ylsulfonyl)pyrrolidin-3-yl)-7-(tetrahydro-2H-pyran-4-yl)imidazo[5,1-f][1,2,4]triazin-4(3H)-one], under setting [1], the IC50 was less than 1 µM.

For `CCC(CC)c1ncc2c(=O)[nH]c(C3CN(Cc4ncccn4)CC3C)nn12` (single isomer, unassigned; (+)) [(+)-2-((3,4-trans)-4-methyl-1-(pyrimidin-2-ylmethyl)pyrrolidin-3-yl)-7-(pentan-3-yl)imidazo[5,1-f][1,2,4]triazin-4(3H)-one], the IC50 is less than 1 µM.

Turning to `CC1CN(Cc2ncccn2)CC1c1nn2c(C3CCOC3)ncc2c(=O)[nH]1` (single isomer, unassigned; (+)) [(+)-2-((3,4-trans)-4-methyl-1-(pyrimidin-2-ylmethyl)pyrrolidin-3-yl)-7-(tetrahydrofuran-3-yl)imidazo[5,1-f][1,2,4]triazin-4(3H)-one], the IC50 under setting [1] is less than 1 µM.

As for `CC1CN(Cc2ncccn2)CC1c1nn2c(-c3ccccc3)ncc2c(=O)[nH]1` (single isomer, unassigned; (+)) [(+)-2-((3,4-trans)-4-methyl-1-(pyrimidin-2-ylmethyl)pyrrolidin-3-yl)-7-phenylimidazo[5,1-f][1,2,4]triazin-4(3H)-one], the IC50 is less than 1 µM.

Regarding `CC1CN(C(=O)c2ncccn2)CC1c1nn2c(C3CCOCC3)ncc2c(=O)[nH]1` (single isomer, unassigned; (+)) [(+)-2-((3,4-trans)-4-methyl-1-(pyrimidine-2-carbonyl)pyrrolidin-3-yl)-7-(tetrahydro-2H-pyran-4-yl)imidazo[5,1-f][1,2,4]triazin-4(3H)-one], the IC50 under setting [1] is 1 to 10 µM.

For `CC1CN(Cc2ncc3ccccc3n2)CC1c1nn2c(C3CCOCC3)ncc2c(=O)[nH]1` (single isomer, unassigned; (+)) [(+)-2-((3,4-trans)-4-methyl-1-(quinazolin-2-ylmethyl)pyrrolidin-3-yl)-7-(tetrahydro-2H-pyran-4-yl)imidazo[5,1-f][1,2,4]triazin-4(3H)-one], the half-inhibitory concentration (IC50) under setting [1] was less than 1 µM.

Take `CC1CN(Cc2ccc3ccccc3n2)CC1c1nn2c(C3CCOCC3)ncc2c(=O)[nH]1` (single isomer, unassigned; (+)) [(+)-2-((3,4-trans)-4-methyl-1-(quinolin-2-ylmethyl)pyrrolidin-3-yl)-7-(tetrahydro-2H-pyran-4-yl)imidazo[5,1-f][1,2,4]triazin-4(3H)-one]: the IC50 under setting [1] was less than 1 µM.

`CC1CN(S(=O)(=O)c2ccccc2C#N)CC1c1nn2c(C3CCOCC3)ncc2c(=O)[nH]1` (single isomer, unassigned; (+)) [(+)-2-(((3,4-trans)-3-methyl-4-(4-oxo-7-(tetrahydro-2H-pyran-4-yl)-3,4-dihydroimidazo[5,1-f][1,2,4]triazin-2-yl)pyrrolidin-1-yl)sulfonyl)benzonitrile]: under setting [1], the IC50 was in the range of 1 to 10 µM.

As for `CC1CN(Cc2ccc(C#N)cc2)CC1c1nn2c(C3CCOCC3)ncc2c(=O)[nH]1` (single isomer, unassigned; (+)) [(+)-4-(((3,4-trans)-3-methyl-4-(4-oxo-7-(tetrahydro-2H-pyran-4-yl)-3,4-dihydroimidazo[5,1-f][1,2,4]triazin-2-yl)pyrrolidin-1-yl)methyl)benzonitrile], the IC50 under setting [1] was less than 1 µM.
